What follows are compounds tested against T1, full-length beta-catenin (Axin site) (Homo sapiens, UniProt P35222) (assay: Competition fluorescence polarization assay (Axin site probe)). Conditions: competition fluorescence polarization, Table 2; read-out: in vitro FP EC50.
T1 construct: 15 nM full-length beta-catenin, 20 nM FITC labeled peptide in buffer
T1 sequence (P35222 1-781): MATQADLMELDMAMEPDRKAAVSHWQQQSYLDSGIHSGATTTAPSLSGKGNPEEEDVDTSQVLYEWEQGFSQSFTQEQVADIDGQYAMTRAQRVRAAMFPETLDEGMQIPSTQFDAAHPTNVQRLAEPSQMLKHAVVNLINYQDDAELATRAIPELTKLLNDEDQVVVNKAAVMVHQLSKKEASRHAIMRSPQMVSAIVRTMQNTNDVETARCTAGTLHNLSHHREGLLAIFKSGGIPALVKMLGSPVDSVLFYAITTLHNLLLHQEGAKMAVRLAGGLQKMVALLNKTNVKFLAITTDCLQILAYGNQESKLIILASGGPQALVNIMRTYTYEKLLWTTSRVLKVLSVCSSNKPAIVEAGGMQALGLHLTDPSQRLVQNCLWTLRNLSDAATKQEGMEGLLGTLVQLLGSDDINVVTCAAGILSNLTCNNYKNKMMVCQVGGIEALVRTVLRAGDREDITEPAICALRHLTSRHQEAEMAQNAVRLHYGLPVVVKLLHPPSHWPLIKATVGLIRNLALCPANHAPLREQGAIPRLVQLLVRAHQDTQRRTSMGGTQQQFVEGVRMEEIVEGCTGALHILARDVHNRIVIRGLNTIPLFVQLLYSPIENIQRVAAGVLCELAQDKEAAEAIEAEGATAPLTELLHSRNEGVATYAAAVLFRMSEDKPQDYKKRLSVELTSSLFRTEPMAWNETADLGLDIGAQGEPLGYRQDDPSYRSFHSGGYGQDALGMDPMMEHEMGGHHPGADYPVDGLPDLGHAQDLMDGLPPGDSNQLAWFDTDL
Assay type: binding
Method in brief: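 Competition FP: 15 nM full-length β-catenin pre-incubated 5 min with 20 nM FITC-labelled stapled Axin-site peptide, then titrated peptide added (3-fold series from 5 μM) for 15 min in the dark. Buffer 50 mM Tris pH 8.0, 250 mM NaCl, 2% glycerol, 0.5 mM EDTA; duplicate reads.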

| Compound | EC50 |
| --- | --- |
| CC[C@H](C)[C@@H]1NC(=O)[C@H](Cc2ccccn2)NC(=O)[C@H](C)NC(=O)[C@H](CC(=O)O)NC(=O)[C@H](CC(C)C)NC(=O)[C@H]([C@@H](C)CC)NC(=O)[C@](C)(NC(=O)[C@H](C)NC(C)=O)CCCCCCC=CCOC(=O)N2CC[C@@](C(=O)N[C@@H](Cc3ccc(OC)cc3)C(=O)N[C@H](C(=O)N[C@@H](Cc3c[nH]c4ccccc34)C(N)=O)C(C)C)(C2)NC1=O (single isomer, unassigned) [FP0575c Isomer 1, Ac-A-R8-I-L-D-A-2pyr-I-MB-MeY-V-W-NH2] | > 5 µM |
| CC[C@H](C)[C@@H]1NC(=O)[C@H](Cc2ccccn2)NC(=O)[C@H](C)NC(=O)[C@H](CC(=O)O)NC(=O)[C@H](CC(C)C)NC(=O)[C@H]([C@@H](C)CC)NC(=O)[C@](C)(NC(=O)[C@H](C)NC(C)=O)CCCCCCC=CCOC(=O)N2CC[C@@](C(=O)N[C@@H](Cc3ccc(OC)cc3)C(=O)N[C@H](C(=O)N[C@@H](Cc3c[nH]c4ccccc34)C(N)=O)C(C)C)(C2)NC1=O (single isomer, unassigned) [FP0575c Isomer 2, Ac-A-R8-I-L-D-A-2pyr-I-MB-MeY-V-W-NH2] | > 5 µM |
| CC[C@H](C)[C@@H]1NC(=O)[C@H](Cc2ccccn2)NC(=O)[C@H](C)NC(=O)[C@H](CC(=O)O)NC(=O)[C@H](CC(C)C)NC(=O)[C@H]([C@@H](C)CC)NC(=O)[C@](C)(NC(=O)[C@H](C)NC(C)=O)CCCCCCC=CCOC(=O)N2CC[C@@](C(=O)N[C@@H](Cc3ccc(F)cc3)C(=O)N[C@H](C(=O)N[C@@H](Cc3c[nH]c4ccccc34)C(N)=O)C(C)C)(C2)NC1=O (single isomer, unassigned) [FP0576c Isomer 1, Ac-A-R8-I-L-D-A-2pyr-I-MB-4FF-V-W-NH2] | > 5 µM |
| CC[C@H](C)[C@@H]1NC(=O)[C@H](Cc2ccccn2)NC(=O)[C@H](C)NC(=O)[C@H](CC(=O)O)NC(=O)[C@H](CC(C)C)NC(=O)[C@H]([C@@H](C)CC)NC(=O)[C@](C)(NC(=O)[C@H](C)NC(C)=O)CCCCCCC=CCOC(=O)N2CC[C@@](C(=O)N[C@@H](Cc3ccc(F)cc3)C(=O)N[C@H](C(=O)N[C@@H](Cc3c[nH]c4ccccc34)C(N)=O)C(C)C)(C2)NC1=O (single isomer, unassigned) [FP0576c Isomer 2, Ac-A-R8-I-L-D-A-2pyr-I-MB-4FF-V-W-NH2] | > 5 µM |
| CC[C@H](C)[C@@H]1NC(=O)[C@H](Cc2ccccn2)NC(=O)[C@H](C)NC(=O)[C@H](CC(=O)O)NC(=O)[C@H](CC(C)C)NC(=O)[C@H]([C@@H](C)CC)NC(=O)[C@](C)(NC(=O)[C@H](C)NC(C)=O)CCCCCCC=CCOC(=O)N2CC[C@@](C(=O)N[C@@H](Cc3cccc4ccccc34)C(=O)N[C@H](C(=O)N[C@@H](Cc3c[nH]c4ccccc34)C(N)=O)C(C)C)(C2)NC1=O (single isomer, unassigned) [FP0577c Isomer 1, Ac-A-R8-I-L-D-A-2pyr-I-MB-1NapA-V-W-NH2] | > 5 µM |
| CC[C@H](C)[C@@H]1NC(=O)[C@H](Cc2ccccn2)NC(=O)[C@H](C)NC(=O)[C@H](CC(=O)O)NC(=O)[C@H](CC(C)C)NC(=O)[C@H]([C@@H](C)CC)NC(=O)[C@](C)(NC(=O)[C@H](C)NC(C)=O)CCCCCCC=CCOC(=O)N2CC[C@@](C(=O)N[C@@H](Cc3ccc(C)cc3)C(=O)N[C@H](C(=O)N[C@@H](Cc3c[nH]c4ccccc34)C(N)=O)C(C)C)(C2)NC1=O (single isomer, unassigned) [FP0578c Isomer 1, Ac-A-R8-I-L-D-A-2pyr-I-MB-4MeF-V-W-NH2] | > 5 µM |
| CC[C@H](C)[C@@H]1NC(=O)[C@H](Cc2ccccn2)NC(=O)[C@H](C)NC(=O)[C@H](CC(=O)O)NC(=O)[C@H](CC(C)C)NC(=O)[C@H]([C@@H](C)CC)NC(=O)[C@](C)(NC(=O)[C@H](C)NC(C)=O)CCCCCCC=CCOC(=O)N2CC[C@@](C(=O)N[C@@H](Cc3ccc(C)cc3)C(=O)N[C@H](C(=O)N[C@@H](Cc3c[nH]c4ccccc34)C(N)=O)C(C)C)(C2)NC1=O (single isomer, unassigned) [FP0578c Isomer 2, Ac-A-R8-I-L-D-A-2pyr-I-MB-4MeF-V-W-NH2] | > 5 µM |

The remaining lines, values ahead:

| EC50 | Compound |
| --- | --- |
| 0.5 to 5 µM | CC[C@H](C)[C@@H]1NC(=O)C2(NC(=O)[C@H](CCC(N)=O)NC(=O)[C@@H]3CCCN3C(C)=O)CN(C2)C(=O)OCC=CCC[C@](C)(C(=O)N[C@@H](Cc2c[nH]cn2)C(=O)N[C@H](C(=O)N[C@@H](CCCNC(=N)N)C(=O)N[C@@H](CCCNC(=N)N)C(=O)N[C@H](C(=O)N[C@@H](Cc2c[nH]c3ccccc23)C(=O)N[C@@H](CCCNC(=N)N)C(N)=O)C(C)C)C(C)C)NC(=O)[C@H](CC(=O)O)NC(=O)[C@H](CC(C)C)NC1=O (single isomer, unassigned) [FP0721c, Ac-P-Q-MA-I-L-D-R4-H-V-R-R-V-W-R-NH2] |
| 0.5 to 5 µM | CC[C@H](C)[C@@H]1NC(=O)C2(NC(=O)[C@H](CCC(N)=O)NC(=O)[C@@H]3CCCN3C(C)=O)CN(C2)C(=O)OCC=CCCC[C@](C)(C(=O)N[C@@H](Cc2c[nH]cn2)C(=O)N[C@H](C(=O)N[C@@H](CCCNC(=N)N)C(=O)N[C@@H](CCCNC(=N)N)C(=O)N[C@H](C(=O)N[C@@H](Cc2c[nH]c3ccccc23)C(=O)N[C@@H](CCCNC(=N)N)C(N)=O)C(C)C)C(C)C)NC(=O)[C@H](CC(=O)O)NC(=O)[C@H](CC(C)C)NC1=O (single isomer, unassigned) [FP0723c, Ac-P-Q-MA-I-L-D-R5-H-V-R-R-V-W-R-NH2] |
| 0.5 to 5 µM | CC[C@H](C)[C@@H]1NC(=O)C2(NC(=O)[C@H](CCC(N)=O)NC(=O)[C@@H]3CCCN3C(C)=O)CN(C2)C(=O)OCC=CCCC[C@@](C)(C(=O)N[C@@H](Cc2c[nH]cn2)C(=O)N[C@H](C(=O)N[C@@H](CCCNC(=N)N)C(=O)N[C@@H](CCCNC(=N)N)C(=O)N[C@H](C(=O)N[C@@H](Cc2c[nH]c3ccccc23)C(=O)N[C@@H](CCCNC(=N)N)C(N)=O)C(C)C)C(C)C)NC(=O)[C@H](CC(=O)O)NC(=O)[C@H](CC(C)C)NC1=O (single isomer, unassigned) [FP0724c, Ac-P-Q-MA-I-L-D-S5-H-V-R-R-V-W-R-NH2] |
| 0.5 to 5 µM | CC[C@H](C)[C@@H]1NC(=O)C2(NC(=O)[C@H](CCC(N)=O)NC(=O)[C@@H]3CCCN3C(C)=O)CN(CC=CCCCC[C@](C)(C(=O)N[C@@H](Cc3c[nH]cn3)C(=O)N[C@H](C(=O)N[C@@H](CCCNC(=N)N)C(=O)N[C@@H](CCCNC(=N)N)C(=O)N[C@H](C(=O)N[C@@H](Cc3c[nH]c4ccccc34)C(=O)N[C@@H](CCCNC(=N)N)C(N)=O)C(C)C)C(C)C)NC(=O)[C@H](CC(=O)O)NC(=O)[C@H](CC(C)C)NC1=O)C2 (single isomer, unassigned) [FP0725a, Ac-P-Q-MA-I-L-D-R6-H-V-R-R-V-W-R-NH2] |
| 0.5 to 5 µM | CC[C@H](C)[C@@H]1NC(=O)C2(NC(=O)[C@H](CCC(N)=O)NC(=O)[C@@H]3CCCN3C(C)=O)CN(C2)C(=O)OCC=CCCCCC[C@](C)(C(=O)N[C@@H](Cc2c[nH]cn2)C(=O)N[C@H](C(=O)N[C@@H](CCCNC(=N)N)C(=O)N[C@@H](CCCNC(=N)N)C(=O)N[C@H](C(=O)N[C@@H](Cc2c[nH]c3ccccc23)C(=O)N[C@@H](CCCNC(=N)N)C(N)=O)C(C)C)C(C)C)NC(=O)[C@H](CC(=O)O)NC(=O)[C@H](CC(C)C)NC1=O (single isomer, unassigned) [FP0727c, Ac-P-Q-MA-I-L-D-R7-H-V-R-R-V-W-R-NH2] |
| 0.5 to 5 µM | CC[C@H](C)[C@@H]1NC(=O)C2(NC(=O)[C@H](CCC(N)=O)NC(=O)[C@@H]3CCCN3C(C)=O)CN(C2)C(=O)OCC=CCCCCC[C@@](C)(C(=O)N[C@@H](Cc2c[nH]cn2)C(=O)N[C@H](C(=O)N[C@@H](CCCNC(=N)N)C(=O)N[C@@H](CCCNC(=N)N)C(=O)N[C@H](C(=O)N[C@@H](Cc2c[nH]c3ccccc23)C(=O)N[C@@H](CCCNC(=N)N)C(N)=O)C(C)C)C(C)C)NC(=O)[C@H](CC(=O)O)NC(=O)[C@H](CC(C)C)NC1=O (single isomer, unassigned) [FP0728c, Ac-P-Q-MA-I-L-D-S7-H-V-R-R-V-W-R-NH2] |
| 0.5 to 5 µM | CC[C@H](C)[C@@H]1NC(=O)[C@](C)(NC(=O)[C@H](CCC(N)=O)NC(=O)[C@@H]2CCCN2C(C)=O)CCC=CCOC(=O)N2CC(C(=O)N[C@@H](Cc3c[nH]cn3)C(=O)N[C@H](C(=O)N[C@@H](CCCNC(=N)N)C(=O)N[C@@H](CCCNC(=N)N)C(=O)N[C@H](C(=O)N[C@@H](Cc3c[nH]c4ccccc34)C(=O)N[C@@H](CCCNC(=N)N)C(N)=O)C(C)C)C(C)C)(C2)NC(=O)[C@H](CC(=O)O)NC(=O)[C@H](CC(C)C)NC1=O (single isomer, unassigned) [FP0731c, Ac-P-Q-R4-I-L-D-MA-H-V-R-R-V-W-R-NH2] |
| 0.5 to 5 µM | CC[C@H](C)[C@@H]1NC(=O)[C@](C)(NC(=O)[C@H](CCC(N)=O)NC(=O)[C@@H]2CCCN2C(C)=O)CCCC=CCOC(=O)N2CC(C(=O)N[C@@H](Cc3c[nH]cn3)C(=O)N[C@H](C(=O)N[C@@H](CCCNC(=N)N)C(=O)N[C@@H](CCCNC(=N)N)C(=O)N[C@H](C(=O)N[C@@H](Cc3c[nH]c4ccccc34)C(=O)N[C@@H](CCCNC(=N)N)C(N)=O)C(C)C)C(C)C)(C2)NC(=O)[C@H](CC(=O)O)NC(=O)[C@H](CC(C)C)NC1=O (single isomer, unassigned) [FP0733c, Ac-P-Q-R5-I-L-D-MA-H-V-R-R-V-W-R-NH2] |

From patent US11198713B2, “Agents modulating beta-catenin functions and methods thereof” (FOG PHARMACEUTICALS, INC., priority 2017, dated 2021)
